Measured values: US20110015133A1, “PAX2 AND PAX8 AS TUMOUR TARGETS FOR IMMUNOLOGIC AND MOLECULAR TREATMENT STRATEGIES” (Charite-Universitatsmedizin Berlin, priority 2006, published 2011)

Columns and labels:
[1] = test system: CD3+CD8+ lymphocytes from patients with renal cell and ovarian cancer; assay: Screening of PAX8 candidate epitopes for recognition by T-cells (IFNγ/TNFα) in carcinoma patients; format: cell-based, human; details: for recognition by T-cells of patients in peptide pools: 4 pools of three peptides each, every peptide in two pools
From the text: To identify T-cell epitopes, they were screened for recognition by T-cells from patients with renal cell and ovarian cancer which are PAX8 positive tumours secreting cytokine IFNγ or TNFα in response to PAX 8 or control HIV peptide. By using 4 pools of three peptides each, every peptide was present in two pools.

[2] = test system: T2-cells loaded with peptide; assay: Cr release assay, peptide-loaded T2-cells; format: cell-based; details: T-cells induced against peptide 3496 in a renal cancer patient; 10:1 E:T; label = peptide loaded on T2
From the text: (§1) A panel of colorectal cancer cell lines has been characterized expressing both PAX2 and PAX8 to function as targets for recognition by specific T-cells (Table IV).

[3] = test system: colon cancer cell line SW480; assay: Cr release assay, colon cancer cell line; format: cell-based
From the text: as §1

[4] = test system: T-cells of a patient with renal cancer; assay: Induction of a T-cell response in a cancer patient; design: species or system human
[5] = patient # 1 Ovarian, first line (IFNγ)
[6] = patient # 1 Ovarian, second line (TNFα)
[7] = patient # 2 Ovarian, first line (IFNγ)
[8] = patient # 2 Ovarian, second line (TNFα)
[9] = patient # 3 Ovarian, first line (IFNγ)
[10] = patient # 3 Ovarian, second line (TNFα)
[11] = patient # 4 Ovarian, first line (IFNγ)
[12] = patient # 4 Ovarian, second line (TNFα)
[13] = patient # 5 Ovarian, first line (IFNγ)
[14] = patient # 5 Ovarian, second line (TNFα)
[15] = patient # 6 Ovarian, first line (IFNγ)
[16] = patient # 6 Ovarian, second line (TNFα)
[17] = patient # 7 Renal cell, first line (IFNγ)
[18] = patient # 7 Renal cell, second line (TNFα)
[19] = patient # 8 Renal cell, first line (IFNγ)
[20] = patient # 8 Renal cell, second line (TNFα)
[21] = patient # 9 Renal cell, first line (IFNγ)
[22] = patient # 9 Renal cell, second line (TNFα)

Substance | PAX8 candidate epitope recognized (both pools containing it reactive) [1, 5] | PAX8 candidate epitope recognized (both pools containing it reactive) [1, 6] | PAX8 candidate epitope recognized (both pools containing it reactive) [1, 7] | PAX8 candidate epitope recognized (both pools containing it reactive) [1, 8] | PAX8 candidate epitope recognized (both pools containing it reactive) [1, 9] | PAX8 candidate epitope recognized (both pools containing it reactive) [1, 10] | PAX8 candidate epitope recognized (both pools containing it reactive) [1, 11] | PAX8 candidate epitope recognized (both pools containing it reactive) [1, 12] | PAX8 candidate epitope recognized (both pools containing it reactive) [1, 13] | PAX8 candidate epitope recognized (both pools containing it reactive) [1, 14] | PAX8 candidate epitope recognized (both pools containing it reactive) [1, 15] | PAX8 candidate epitope recognized (both pools containing it reactive) [1, 16] | PAX8 candidate epitope recognized (both pools containing it reactive) [1, 17] | PAX8 candidate epitope recognized (both pools containing it reactive) [1, 18] | PAX8 candidate epitope recognized (both pools containing it reactive) [1, 19] | PAX8 candidate epitope recognized (both pools containing it reactive) [1, 20] | PAX8 candidate epitope recognized (both pools containing it reactive) [1, 21] | PAX8 candidate epitope recognized (both pools containing it reactive) [1, 22] | further results
T L T P S N T P L (TLTPSNTPL; listed as Homo sapiens) [Peptide 277-285] | no | no | no | no | no | no | no | no | no | no | no | no | no | no | no | no | no | yes | recognition by T-cells of patients in peptide pools [1]: recognized in both pools
N L S T H Q T Y P V (NLSTHQTYPV; listed as Homo sapiens) [Peptide 288-298] | no | no | no | no | no | no | no | no | no | no | no | no | no | no | no | no | no | no | –
T L P G Y P P H V [Peptide 3496] | – | – | – | – | – | – | – | – | – | – | – | – | – | – | – | – | – | – | specific cytolysis (killing) of peptide-loaded T2-cells [2]: 32%; cytolysis of SW480 inhibited by cold target ([3]; T-cells induced against peptide 3496, with cold target): 10%; specific cytolysis of colon cancer cell line SW480 ([3]; T-cells induced against peptide 3496 in a renal cancer patient): 28%; induction of specific T-cells against the peptide [4]: able to induce specific T-cells
T L P G Y P P H I (TLPGYPPHI; listed as Homo sapiens) [Peptide 370-378] | no | no | no | no | no | no | no | no | no | no | no | no | no | no | no | no | no | no | –
A L L S G R E M V (ALLSGREMV; listed as Homo sapiens) [Peptide 359-367] | no | no | no | no | no | no | no | no | no | no | no | no | no | no | no | no | no | no | –
T L D D G K A T L (TLDDGKATL; listed as Homo sapiens) [Peptide 270-278] | no | no | no | no | no | no | no | no | no | no | no | no | no | no | no | no | no | no | –
S L S S S A F L D L (SLSSSAFLDL; listed as Homo sapiens) [Peptide 323-333] | yes | no | no | no | no | no | no | no | no | no | no | no | no | no | no | no | no | no | recognition by T-cells of patients in peptide pools [1]: recognized in both pools
